Assays:
[1] = system: diabetic rats; experiment: Assay for inhibitory effects on blood glucose level increase in rats (liquid meal tolerance test); type: in vivo, rat; details: test compound 1 mg/kg orally, liquid meal 17.25 kcal/kg, mean±S.E.; for Plasma glucose concentration 0.5 h: 0.5 hour after the drug administration; for Plasma glucose concentration 1 h: 1 hour after the drug administration
Description: Assay for Inhibitory Effects on Blood Glucose Level Increase in Rats
1) Preparation of Diabetic Rat Model
Male wistar rats (Japan Charles River), aged 8 weeks old, were injected nicotinamide (230 mg/kg) intraperitoneally. Fifteen minutes after injection, they were injected streptozotocin (85 mg/kg) intravenously from tail vain under anesthesia with ether. After a week, rats were fasted overnight and then glucose tolerance test (2 g/kg) was done.
2) Liquid Meal Tolerance Test
After overnight fasted, the diabetic rats were orally administered a test compound (1 mg/kg), which was dissolved in distilled water or 0.5% aqueous carboxymethylcellulose solution, in the drug-treating group, or distilled water or 0.5% aqueous carboxymethylcellulose solution alone in a control group. Immediately after the compound administration, 17.25 kcal/kg of liquid meal (No. 038, Control diet, assorted with dextrin and maltose; Oriental Yeast Co., Ltd.) was loaded orally. The blood was collected from tail artery immediately before and after administration with the time course, and treated with heparin immediately. The blood was centrifuged, and the plasma was collected to quantify the plasma glucose concentration by glucose oxidase method. The values in the Table are presented as the mean±S.E.

[2] = target: T1, human SGLT1 (Homo sapiens, UniProt P13866); experiment: Assay for inhibitory effects on human SGLT1 activity (uptake of methyl-α-D-glucopyranoside in CS1-5-11D cells); type: cell-based; details: CHO-K1 cells stably expressing human SGLT1 (CS1-5-11D); 1 mM α-MG uptake, 37° C., 1 hour
T1 construct: expressed in transfected cells
T1 sequence (P13866 1-664): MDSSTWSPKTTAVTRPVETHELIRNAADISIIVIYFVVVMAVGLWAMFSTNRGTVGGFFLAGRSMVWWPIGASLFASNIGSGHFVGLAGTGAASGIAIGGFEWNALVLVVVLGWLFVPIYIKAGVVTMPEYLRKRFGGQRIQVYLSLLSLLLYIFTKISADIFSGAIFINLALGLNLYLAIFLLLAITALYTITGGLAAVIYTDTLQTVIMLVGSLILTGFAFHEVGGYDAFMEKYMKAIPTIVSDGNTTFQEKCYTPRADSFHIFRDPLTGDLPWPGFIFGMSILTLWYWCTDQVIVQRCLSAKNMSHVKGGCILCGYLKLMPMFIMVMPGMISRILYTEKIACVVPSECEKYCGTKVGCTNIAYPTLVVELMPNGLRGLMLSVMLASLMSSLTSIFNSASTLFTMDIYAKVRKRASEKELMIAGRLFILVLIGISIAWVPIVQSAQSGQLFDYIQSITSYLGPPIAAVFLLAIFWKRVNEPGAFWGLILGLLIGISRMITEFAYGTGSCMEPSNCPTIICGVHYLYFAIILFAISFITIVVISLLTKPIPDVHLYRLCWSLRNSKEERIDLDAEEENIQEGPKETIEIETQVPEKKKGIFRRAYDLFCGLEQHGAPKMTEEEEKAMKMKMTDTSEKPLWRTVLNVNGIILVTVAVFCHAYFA
Description: Assay for Inhibitory Effects on Human SGLT1 Activity
1) Cloning and Construction of the Vector Expressing Human SGLT1
The cDNA library was prepared for PCR amplification by reverse transcription from total RNA deprived from human small intestine (Ori gene) using oligo-dT as a primer.
2) Establishment of Cell Line Stably Expressing Human SGLT1
The expression vector of human SGLT1 was digested by Sca I into a linear DNA. The linear DNA was transfected into CHO-K1 cells by means of lipofection (Effectene Transfection Reagent: QIAGEN). Neomycin resistant cell lines were selected by culture in the medium containing G418 (1 mg/mL, LIFE TECHNOLOGIES), and then the activity against the uptake of methyl-α-D-glucopyranoside was measured by the method described below. […] CS1-5-11D cells were cultured in the presence of G418 at 200 μg/mL.
3) Measurement of the Inhibitory Activity Against the Uptake of Methyl-α-D-glucopyranoside (α-MG)
CS1-5-11D cells were seeded into a 96-well culture plate at a density of 3×10^4 cells/well and cultured for 2 days, and were used in the uptake assay. A mixture of non-labeled (Sigma) and ^14C-labeled α-MG (Amersham Pharmcia Biotec) was added to the uptake buffer (pH 7.4: containing 140 mM sodium chloride, 2 mM potassium chloride, 1 mM calcium chloride, 1 mM magnesium chloride, 10 mM 2-[4-(2-hydroxyethyl)-1-piperazinyl]ethane sulfonic acid, and 5 mM tris(hydroxymethyl)aminomethane) at the final concentration of 1 mM. A test compound was dissolved in dimethyl sulfoxide, and then appropriately diluted with distilled water. The test compound solution was added to the uptake buffer containing 1 mM α-MG, and designated as a measurement buffer. For the control group, the measurement buffer without any test compound was prepared. For measuring the basal uptake, a basal uptake measurement buffer which contains 140 mM chorine chloride instead of sodium chloride was prepared. After removing the culture medium of CS1-5-11D cells, 180 μL of the pre-treatment buffer (the basal uptake buffer without α-MG) was added to each well and incubated at 37° C. for 10 minutes. After repeating the same treatment, the pre-treatment buffer was removed. To each well was added 75 μL of the measurement buffer or the basal uptake buffer was added and incubated at 37° C. for 1 hour. After removing the measurement buffer, cells were washed twice with 180 μL per well of the washing buffer (the basal uptake buffer containing 10 mM non-labeled α-MG). The cells were solubilized by 75 μL per well of 0.2 mol/L sodium hydroxide. The cell lysates were transferred into PicoPlates (Packard), and then added 150 μL of MicroScint-40 (Packard) and mixed. Radioactivity was measured by means of micro-scintillation counter TopCount (Packard). One hundred was set to the difference between the uptake in the control group and the basal uptake, and the uptake of methyl α-D-glucopyranoside a teach drug concentration were calculated.

[3] = system: Male ICR mice; experiment: Acute toxicity test; type: in vivo; details: n=5, oral dose of 1 g/kg, observed for 24 hours
Description: Male ICR mice (CLEA Japan, Inc.; 32-37 g, n=5), aged 6 weeks old, were fasted for 4 hours.

IC50 [2]	Structure (SMILES)	Plasma glucose concentration 0.5 h [1]	Plasma glucose concentration 1 h [1]	Number of death [3]	Plasma glucose concentration 0 h ([1]; pretreatment (0 h))
158 nM	CC(C)c1[nH]nc(O[C@@H]2O[C@H](CO)[C@@H](O)[C@H](O)[C@H]2O)c1Cc1ccc(OCCCNC(=NC#N)NCCO)cc1 [Example 37, 4-[(4-{3-[2-Cyano-3-(2-hydroxyethyl)guanidino]propoxy}phenyl)methyl]-3-(β-D-glucopyranosyloxy)-5-isopropyl-1H-pyrazole]	231 ± 21 mg/dL	286 ± 31 mg/dL		
127 nM	CC(C)c1[nH]nc(O[C@@H]2O[C@H](CO)[C@@H](O)[C@H](O)[C@H]2O)c1Cc1ccc(OCCCNC(=O)NC(C)(CO)CO)cc1 [Example 21, 3-(β-D-Glucopyranosyloxy)-4-{[4-(3-{3-[2-hydroxy-1-(hydroxymethyl)-1-(methyl)ethyl]ureido}propoxy)phenyl]-methyl}-5-isopropyl-1H-pyrazole]	211 ± 22 mg/dL	242 ± 35 mg/dL		
267 nM	CC(C)c1[nH]nc(O[C@@H]2O[C@H](CO)[C@@H](O)[C@H](O)[C@H]2O)c1Cc1ccc(OCCCNC(=O)CN)cc1 [Example 13, 4-({4-[3-(2-Aminoacetylamino)propoxy]phenyl}methyl)-3-(β-D-glucopyranosyloxy)-5-isopropyl-1H-pyrazole]	127 ± 7 mg/dL	135 ± 7 mg/dL		
98 nM	Cc1cc(OCCCNC(=N)N)ccc1Cc1c(O[C@@H]2O[C@H](CO)[C@@H](O)[C@H](O)[C@H]2O)n[nH]c1C(C)C [Example 55, 3-(β-D-Glucopyranosyloxy)-4-{[4-(3-guanidinopropoxy)-2-methylphenyl]methyl}-5-isopropyl-1H-pyrazole]	200 ± 16 mg/dL	211 ± 18 mg/dL		
61 nM	CC(C)c1[nH]nc(O[C@@H]2O[C@H](CO)[C@@H](O)[C@H](O)[C@H]2O)c1Cc1ccc(OCCCNC(=O)NC(C)(C)CO)cc1 [Example 24, 3-(β-D-Glucopyranosyloxy)-4-{[4-(3-{3-[2-hydroxy-1,1-di(methyl)ethyl]ureido}propoxy)phenyl]methyl}-5-isopropyl-1H-pyrazole]	210 ± 33 mg/dL	228 ± 50 mg/dL		
71 nM	Cc1cc(OCCCNC(CO)CO)ccc1Cc1c(O[C@@H]2O[C@H](CO)[C@@H](O)[C@H](O)[C@H]2O)n[nH]c1C(C)C [Example 59, 3-(β-D-Glucopyranosyloxy)-4-[(4-(3-[2-hydroxy-1-(hydroxymethyl)ethylamino]propoxy)-2-methylphenyl)methyl]-5-isopropyl-1H-pyrazole]	143 ± 4 mg/dL	154 ± 13 mg/dL		
38 nM	Cc1cc(OCCNC(=N)N)ccc1Cc1c(O[C@@H]2O[C@H](CO)[C@@H](O)[C@H](O)[C@H]2O)n[nH]c1C(C)C [Example 56, 3-(β-D-Glucopyranosyloxy)-4-{[4-(2-guanidinoethoxy)-2-methylphenyl]methyl}-5-isopropyl-1H-pyrazole]	146 ± 7 mg/dL	165 ± 17 mg/dL		
160 nM	Cc1cc(OCCCN2CCN(CCO)CC2)ccc1Cc1c(O[C@@H]2O[C@H](CO)[C@@H](O)[C@H](O)[C@H]2O)n[nH]c1C(C)C [Example 35, 3-(β-D-Glucopyranosyloxy)-4-[(4-{3-[4-(2-hydroxyethyl)piperazin-1-yl]propoxy}-2-methylphenyl)methyl]-5-isopropyl-1H-pyrazole]	188 ± 16 mg/dL	229 ± 25 mg/dL		
304 nM	CC(C)c1[nH]nc(O[C@@H]2O[C@H](CO)[C@@H](O)[C@H](O)[C@H]2O)c1Cc1ccc(OCCCN)cc1 [Example 6, 4-{[4-(3-Aminopropoxy)phenyl]methyl}-3-(β-D-glucopyranosyloxy)-5-isopropyl-1H-pyrazole]	126 ± 12 mg/dL	140 ± 13 mg/dL		
	Cc1cc(OCCCNCCC(N)=O)ccc1Cc1c(O[C@@H]2O[C@H](CO)[C@@H](O)[C@H](O)[C@H]2O)n[nH]c1C(C)C [Example 52, 4-[(4-{3-[2-(Carbamoyl)ethylamino]propoxy}-2-methylphenyl)methyl]-3-(β-D-glucopyranosyloxy)-5-isopropyl-1H-pyrazole]	163 ± 5 mg/dL	176 ± 10 mg/dL	0/5	
169 nM	CC(C)c1[nH]nc(O[C@@H]2O[C@H](CO)[C@@H](O)[C@H](O)[C@H]2O)c1Cc1ccc(OCCCNS(C)(=O)=O)cc1 [Example 10, 3-(β-D-Glucopyranosyloxy)-5-isopropyl-4-({4-[3-(methanesulfonylamino)propoxy]phenyl}methyl)-1H-pyrazole]	145 ± 5 mg/dL	164 ± 6 mg/dL		
68 nM	Cc1cc(OCCCNCC(N)=O)ccc1Cc1c(O[C@@H]2O[C@H](CO)[C@@H](O)[C@H](O)[C@H]2O)n[nH]c1C(C)C [Example 45]	169 ± 18 mg/dL	182 ± 27 mg/dL		
178 nM	CC(C)c1[nH]nc(O[C@@H]2O[C@H](CO)[C@@H](O)[C@H](O)[C@H]2O)c1Cc1ccc(OCCCNCc2cccnc2)cc1 [Example 64, 3-(β-D-Glucopyranosyloxy)-5-isopropyl-4-({4-[3-(3-pyridyl-methylamino)propoxy]phenyl}methyl)-1H-pyrazole]	141 ± 12 mg/dL	148 ± 22 mg/dL		116 ± 2 mg/dL

— patent US8324176B2, “Pyrazole derivatives, medicinal composition containing the same, medicinal use thereof, and intermediate for production thereof” (Kissei Pharmaceutical Co., Ltd., priority 2002, dated 2012)
